{"source": "patent US6080780A", "about": "“Use of nitroflavonoids for the treatment of anxiety” (University of Strathclyde, priority 1995, dated 2000)", "key": {"[1]": {"target": "central benzodiazepine receptor", "assay": "[3H]-FNZ binding to crude synaptosomal membranes from rat CNS regions", "design": "species or system rat (Wistar)", "settings": "read-out: Ki, [3H]-FNZ binding", "method": "(§1) Adult male Wistar rats weighing 250 g were used for biochemical experiments. Adult male Swiss male weighing 25-30 g were used for pharmacological assays except for inhibitory avoidance and tail flick tests were done in rats. Animals were housed in a controlled environment, with free access to food and water and maintained on a 12 h/12 h day/night cycle.\n(§2) Displacement curves were performed using [^3 ]-FNZ or [^3 H]-zolpidem ([^3 H]-ZOLP) as radioligands in washed crude synaptosomal membranes from rat cerebral cortex, cerebellum, hippocampus, striatum or spinal cord. Membrane preparations were carried out according to Medina et al. (1990). Briefly, brains were rapidly dissected out on ice and the different structures were homogenized in 10 volumes of 0.32 M sucrose and centrifuged at 900×g for 10 min. The resulting supernatant was centrifuged at 100,000×g for 30 min and the pellet washed twice in 25 mM Tris HCl buffer pH 7.4 at 100,000×g for 30 min, and stored at -20° C. until used.\n(§3) For [^3 H]-FNZ (84 Ci/mmol, NEN) displacement curves, different concentrations of DNF (0.3 nM to 1 μM) were added to 0.3 mg membrane protein suspended in 1 ml of 25 mM Tris HCl buffer in presence of 0.6 nM of the radioligand. Protein determination was carried out by using the method of Lowry et al. (1951). Nonspecific binding (<5%) was determined in parallel incubations with 10 μM FNZ (Hoffmann-La Roche). The incubation was carried out at 4° C. for 2 h. The assays were determined by filtration under vacuum through Whatman GF/A glass fiber filters, and two washes with 3 ml each of incubation medium. Filters were dried and counted after the addition of 5 ml 2,5-diphenyl-oxazole (PPO)-xylene as scintillation fluid."}, "[2]": {"target": "T1, central benzodiazepine receptor type I (Rattus norvegicus, UniProt P18508+P62813)", "T1 construct": "washed crude synaptosomal membranes from rat cerebral cortex; from tissue; host or cells: Wistar rat cerebral cortex, striatum, cerebellum (crude synaptosomal membranes)", "T1 sequence (P62813 28-455)": "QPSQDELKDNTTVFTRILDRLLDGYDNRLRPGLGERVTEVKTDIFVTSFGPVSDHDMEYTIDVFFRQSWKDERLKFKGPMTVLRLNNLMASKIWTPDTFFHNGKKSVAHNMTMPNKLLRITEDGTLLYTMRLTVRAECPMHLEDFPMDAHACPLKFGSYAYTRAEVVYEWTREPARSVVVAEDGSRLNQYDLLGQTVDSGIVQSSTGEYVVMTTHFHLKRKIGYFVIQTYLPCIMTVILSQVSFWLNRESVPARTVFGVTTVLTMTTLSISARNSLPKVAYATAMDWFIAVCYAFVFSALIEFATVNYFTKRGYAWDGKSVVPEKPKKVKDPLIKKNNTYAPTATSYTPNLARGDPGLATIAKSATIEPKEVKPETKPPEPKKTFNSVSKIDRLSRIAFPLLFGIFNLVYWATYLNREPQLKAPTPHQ", "T1 sequence (P18508 39-466)": "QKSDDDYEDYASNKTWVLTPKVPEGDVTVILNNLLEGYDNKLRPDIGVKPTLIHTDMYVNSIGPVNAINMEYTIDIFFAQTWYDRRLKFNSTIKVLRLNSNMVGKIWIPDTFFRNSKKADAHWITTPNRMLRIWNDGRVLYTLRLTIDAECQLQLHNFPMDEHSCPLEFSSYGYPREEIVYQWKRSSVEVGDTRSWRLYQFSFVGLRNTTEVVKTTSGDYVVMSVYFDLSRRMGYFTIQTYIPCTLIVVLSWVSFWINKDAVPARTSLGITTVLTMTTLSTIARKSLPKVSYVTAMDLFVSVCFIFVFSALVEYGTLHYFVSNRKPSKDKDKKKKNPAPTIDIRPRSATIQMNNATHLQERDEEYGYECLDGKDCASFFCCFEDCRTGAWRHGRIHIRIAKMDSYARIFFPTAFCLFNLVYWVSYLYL", "T1 sequence (P63138 25-474 partner limits assumed)": "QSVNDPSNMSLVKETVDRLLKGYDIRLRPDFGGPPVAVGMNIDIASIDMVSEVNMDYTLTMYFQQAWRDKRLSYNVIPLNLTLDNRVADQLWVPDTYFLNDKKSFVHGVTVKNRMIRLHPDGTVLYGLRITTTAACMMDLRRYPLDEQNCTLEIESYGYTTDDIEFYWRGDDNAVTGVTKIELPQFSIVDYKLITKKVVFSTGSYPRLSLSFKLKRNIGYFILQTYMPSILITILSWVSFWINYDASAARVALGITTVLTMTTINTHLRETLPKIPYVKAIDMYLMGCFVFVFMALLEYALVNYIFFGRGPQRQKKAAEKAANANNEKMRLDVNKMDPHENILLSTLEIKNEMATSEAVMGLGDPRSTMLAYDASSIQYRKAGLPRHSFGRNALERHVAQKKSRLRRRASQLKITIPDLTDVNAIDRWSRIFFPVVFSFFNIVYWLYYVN", "assay": "[3H]-zolpidem binding to rat synaptosomal membranes", "design": "species or system rat (Wistar)", "settings": "read-out: Ki, [3H]-ZOLP binding", "method": "as §1, §2\nFor [^3 H]-ZOLP (50.8 Ci/mmol, NEN) binding assays we used the technique of Arbilla et al. (1986), slightly modified as follows: displacement curves were done with 1 nM of the radioligand and 10 μM zolpidem to determine the nonspecific binding (<15%). The incubation of the samples (0.4 mg protein in 1 ml of 50 mM Tris HCl buffer, pH 7.4, 120 mM NaCl, 5 mM KCl) was carried out at 4' C. during 30 min. […]"}, "[3]": {"test_system": "muscarinic cholinergic receptors", "type": "binding", "settings": "20 μM; data not shown"}, "[4]": {"test_system": "GABAλ receptors", "assay": "[3H]-muscimol binding", "settings": "20 μM; data not shown", "method": "(§4) Additional binding studies were performed as described elsewhere: [^3 ]-prazosin binding for α1 adrenergic receptors (Medina et al., 1984), [^3 H]-dihidroalprenolol binding for β adrenergic receptors (Medina et al. 1984), [^3 H]-quinuclinidyl benzylate binding for muscarinic cholinergic receptors (Jerusalinksy et al., 1983), [^3 H]-muscimol binding for GABAλ receptors (Medina et al., 1983) and [^3 H]-8-Hydroxydipropylaminotetralin ([^3 H]--OH--DPAT) binding for serotonin (5-HTlλ) receptors (Nenonene et al., 1984)."}, "[5]": {"test_system": "serotonin (5-HTlλ) receptors", "assay": "[3H]-8-OH-DPAT binding", "settings": "20 μM; data not shown", "method": "as §4"}, "[6]": {"test_system": "mice", "assay": "Locomotor activity test in mice", "type": "in vivo, male Swiss mice", "settings": "i.p.", "method": "as §1\n(§5) An Opto-varimex® apparatus was used according to Viola et al. (1994). The apparatus discriminates between total and ambulatory activities. An increase in the number of transitions through the beams reflects augmented locomotor activity. In this and all following tests in mice, animals were i.p. injected with the vehicle, or with DNF 20 min before the beginning of the tests. In each session, control mice were tested in parallel with those animals receiving drug treatment."}, "[7]": {"test_system": "mice", "assay": "Elevated plus maze test in mice (Section 2)", "type": "in vivo, male Swiss mice", "method": "as §1, §5\nThe test was performed in the same session immediately after the locomotor activity measurement (Viola et al., 1994; Wolfman et al., 1994). […] A series of experiments with the injection of the selective central benzodiazepine receptor antagonist Ro 15-1788 (File and Pellow, 1986) was also carried out."}, "[8]": {"assay": "Sodium thiopental-induced sleeping time", "type": "in vivo, mice", "settings": "mouse, in vivo; thiopental sleep, locomotor activity and holeboard together; read-out: doses with slight depressant action relative to anxiolytic doses", "method": "(§6) Sodium thiopental (Abbott) (22 mg/kg) was i.p. injected 15 min after vehicle or DNF. The disappearance and reappearance of the righting reflex were considered indications of latency and duration of sleep, respectively (Anca et al., 1993).\n(§7) Mice were injected with sodium thiopental (TP, 22 mg/kg i.p.) 15 min after vehicle (VEH) or 6,3'-dinitroflavone (DNF). The ceiling of sleeping time was 1800 s. Data are expressed in medians (interquartile range). ^3 number of animals per group."}, "[9]": {"test_system": "mice", "assay": "Sodium thiopental-induced sleeping time", "type": "in vivo", "settings": "for Sleeping Time / Latency: median (interquartile range); for Sleeping Time: VEH 190; for Latency: VEH 233", "method": "as §6, §7"}, "[10]": {"target": "central benzodiazepine receptor (Rattus norvegicus, UniProt P18508+P62813)", "sequence (P62813 28-455)": "as the sequence (P62813 28-455) above", "sequence (P18508 39-466)": "as the sequence (P18508 39-466) above", "sequence (P63138 26-474 partner)": "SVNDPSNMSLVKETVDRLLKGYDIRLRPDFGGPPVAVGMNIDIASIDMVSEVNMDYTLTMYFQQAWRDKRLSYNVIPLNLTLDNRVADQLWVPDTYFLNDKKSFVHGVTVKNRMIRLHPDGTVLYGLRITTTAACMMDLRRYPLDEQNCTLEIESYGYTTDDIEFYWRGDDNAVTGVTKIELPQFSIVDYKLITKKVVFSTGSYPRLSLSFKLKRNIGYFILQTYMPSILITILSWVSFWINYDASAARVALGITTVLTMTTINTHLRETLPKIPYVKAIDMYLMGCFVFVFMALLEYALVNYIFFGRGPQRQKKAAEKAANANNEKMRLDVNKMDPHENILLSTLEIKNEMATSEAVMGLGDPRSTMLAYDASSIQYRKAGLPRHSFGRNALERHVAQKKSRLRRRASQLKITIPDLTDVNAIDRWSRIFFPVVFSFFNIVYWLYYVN", "assay": "[3H]-FNZ binding to crude synaptosomal membranes from rat CNS regions", "design": "washed crude synaptosomal membranes from rat cerebral cortex; from tissue; host or cells: Wistar rat cerebral cortex, cerebellum, hippocampus, striatum, spinal cord (crude synaptosomal membranes); species or system rat (Wistar)", "settings": "Ki, [3H]-FNZ binding, rat cerebellum", "method": "as §1\nas §2, with “The resulting supernatant was centrifuged at 100,000×g for 30 min and the pellet washed twice in 25 mM Tris HCl buffer pH 7.4 at 100,000×g for 30 min, and stored at -20° C. until used.” left out\nas §3, with “Protein determination was carried out by using the method of Lowry et al. (1951).” left out, “The incubation was carried out at 4° C. for 2 h.” left out"}}, "note": "“And” between values parts separate entries of the source, which are not always exact repeats. Equal entries are not always repeated. “Also recorded” adds a separate entry of the source. Where two headings read alike, the source gives them in different places.", "data": [{"smiles": "O=c1cc(-c2cccc([N+](=O)[O-])c2)oc2ccc([N+](=O)[O-])cc12", "note": "[Compound (II), 6,3'-dinitroflavone]", "values": [{"measurement": "Ki", "setting": "[1]; rat cerebral cortex", "result": "25.9 ± 3.1", "unit": "nM"}, {"measurement": "Ki", "setting": "[1]; rat hippocampus", "result": "36.1 ± 5", "unit": "nM"}, {"measurement": "Ki", "setting": "[1]; rat spinal cord", "result": "48.1 ± 5.5", "unit": "nM"}, {"measurement": "Ki", "setting": "[1]; rat striatum and spinal cord (range over both)", "result": "44 to 48", "unit": "nM"}, {"measurement": "Ki", "setting": "[1]; rat striatum", "result": "44.1 ± 4.9", "unit": "nM"}, {"measurement": "Ki", "setting": "[2]; rat cerebellum, n=3", "result": "17 ± 1.5", "unit": "nM"}, {"measurement": "Ki", "setting": "[2]; rat cerebral cortex, n=5", "result": "17.2 ± 3.7", "unit": "nM"}, {"measurement": "displacement of [3H]-quinuclidinyl benzilate binding", "setting": "[3]", "result": "did not displace"}, {"measurement": "displacement of [3H]-muscimol binding", "setting": "[4]", "result": "did not displace"}, {"measurement": "displacement of [3H]-8-HO-DPAT binding", "setting": "[5]", "result": "did not displace"}, {"measurement": "spontaneous ambulatory locomotion", "setting": "[6]; 0.3 mg/kg, p<0.05", "result": "slight increase"}, {"measurement": "reduction in the locomotion", "setting": "[6]; 10 mg/kg, p<0.01", "result": 55, "unit": "%"}, {"measurement": "spontaneous ambulatory locomotion", "setting": "[6]; up to 3 mg/kg", "result": "no effect on spontaneous ambulatory locomotion"}, {"measurement": "effect of Ro 15-1788 on DNF anxiolytic effect", "setting": "[7]; mice, DNF 30 μg/kg + Ro 15-1788 1 mg/kg, listed as DNF, 1 mg/kg", "result": "blocked by the injection of Ro 15-1788; also recorded: blocked by the administration of the selective benzodiazepine antagonist Ro 15-1788"}, {"measurement": "total arm entries", "setting": "[7]; mice, i.p., 30 μg/kg", "result": "No differences were observed in the total arm entries"}, {"measurement": "percentage of entries in the open arms", "setting": "[7]; mice, i.p., 30 μg/kg, p<0.01", "result": "increased the percentage of entries in the open arms"}, {"measurement": "anxiolytic potency in comparison to DZ", "setting": "[7]; ratio to diazepam", "result": 30, "unit": "times"}, {"measurement": "selectivity ratio", "setting": "[8]", "result": "100 to 300"}, {"measurement": "latency or sleeping time (in words)", "setting": "[9]; 1 mg/kg", "result": "did not change the latency or the sleeping time"}, {"measurement": "Sleeping Time", "setting": "[9]; DNF 1 mg/kg + TP 22 mg/kg, n=7", "result": "207 (20/600) s"}, {"measurement": "Latency", "setting": "[9]; DNF 1 mg/kg + TP 22 mg/kg, n=7", "result": "230 (164/300) s"}, {"measurement": "Latency", "setting": "[9]; DNF 3 mg/kg + TP 22 mg/kg, n=12", "result": "237 (202/293) s"}, {"measurement": "Sleeping Time", "setting": "[9]; DNF 3 mg/kg + TP 22 mg/kg, n=12, p<0.05", "result": "1277 (248/1800) s"}, {"measurement": "latency to sleep (in words)", "setting": "[9]; i.p., 3 mg/kg", "result": "No changes were observed in latency to sleep"}, {"measurement": "sleeping time (in words)", "setting": "[9]; i.p., 3 mg/kg, p<0.05", "result": "augmented the sleeping time"}, {"measurement": "Ki", "setting": "[10]", "result": "17 nM and 17.2 nM"}]}]}
